In patent publication US7494987B2, “Agent for treating respiratory diseases containing 4-hydroxypiperidine derivative as active ingredient” (priority 2002, dated 2009):

Compound	melting point
COc1cc(N(C)CC2(O)CCN(CCc3ccc(C#N)cc3)CC2)c(Cl)cc1C(=O)O.Cl	116.3 to 120.8 °C
CN(CC1(O)CCN(CCc2ccc(C#N)cc2)CC1)c1ccc(C(=O)NOC2CCCCO2)cc1 (stereo not drawn) [Example 23, 4-({1-[2-(4-cyanophenyl)ethyl]-4-hydroxypiperidin-4-ylmethyl}methylamino)-N-(tetrahydropyran-2-yloxy)benzamide]	100.9 to 102.1 °C
CN(CC1(O)CN(CCc2ccc(C#N)cc2)C1)c1ccc(C(=O)O)cc1 [Example 17, 4-({1-[2-(4-cyanophenyl)ethyl]-3-hydroxyazetidin-3-ylmethyl}methylamino)benzoic acid]	197.9 to 199.4 °C
COC(=O)c1ccc(N(C)CC2(O)CCN(CCOc3ccc(C#N)cc3)CC2)cc1 [Example 22, methyl 4-({1-[2-(4-cyanophenoxy)ethyl]-4-hydroxypiperidin-4-ylmethyl}methylamino)benzoate]	112.5 to 113 °C
CN(CC1(O)CCCN(CCc2ccc(C#N)cc2)C1)c1ccc(C(=O)O)cc1.Cl (stereo not drawn)	220.1 to 233.3 °C
COC(=O)c1ccc(N(C)CC2(OC)CCN(CCc3ccc(C#N)cc3)CC2)cc1 [Example 25, methyl 4-({1-[2-(4-cyanophenyl)ethyl]-4-methoxypiperidin-4-ylmethyl}methylamino)benzoate]	126.9 to 134.5 °C
COC(=O)c1ccc(N(C)CC2(O)CN(CCc3ccc(C#N)cc3)C2)cc1 [Example 10, methyl 4-({1-[2-(4-cyanophenyl)ethyl]-3-hydroxyazetidin-3-ylmethyl}methylamino)benzoate]	145.5 to 149.1 °C
CN(CC1(O)CCN(CCOc2ccc(C#N)cc2)CC1)c1ccc(C(=O)O)cc1.Cl	258.4 to 260.1 °C
COC(=O)c1ccc(SCC2(O)CCN(CCc3ccc(C#N)cc3)CC2)cc1 [Example 42, methyl 4-{1-[2-(4-cyanophenyl)ethyl]-4-hydroxypiperidin-4-ylmethylthio}benzoate]	119.1 to 120.8 °C
CN(CC1(O)CCCN(CCc2ccc(C#N)cc2)C1)c1ccc(C(=O)OC(C)(C)C)cc1 (stereo not drawn) [Example 9, tert-butyl 4-({1-[2-(4-cyanophenyl)ethyl]-3-hydroxypiperidin-3-ylmethyl}methylamino)benzoate]	41.2 to 44.1 °C
COC(=O)c1ccc(N(C)CC2(O)CCN(CCc3ccc(C(F)(F)F)cc3)CC2)cc1 [Example 24, methyl 4-({4-hydroxy-1-[2-(4-trifluoromethylphenyl)ethyl]piperidin-4-ylmethyl}methylamino)benzoate]	142.7 to 143.9 °C
COC1(CN(C)c2ccc(C(=O)O)cc2)CCN(CCc2ccc(C#N)cc2)CC1.Cl	226.3 to 230.7 °C
COC(=O)c1ccc(S(=O)(=O)CC2(O)CCN(CCc3ccc(C#N)cc3)CC2)cc1 [Example 46, methyl 4-{1-[2-(4-cyanophenyl)ethyl]-4-hydroxypiperidin-4-ylmethylsulfonyl}benzoate]	135.4 to 137.2 °C
COC(=O)c1ccc(N(C)CC2(O)CCN(CCCc3ccc(C#N)cc3)CC2)cc1 [Example 21, methyl 4-({1-[3-(4-cyanophenyl)propyl]-4-hydroxypiperidin-4-ylmethyl}methylamino)benzoate]	126.8 to 129.7 °C
COc1cc(C(=O)O)ccc1N(C)CC1(O)CCN(CCc2ccc(C#N)cc2)CC1 [Example 4, 4-({1-[2-(4-cyanophenyl)ethyl]-4-hydroxypiperidin-4-ylmethyl}methylamino)-3-methoxybenzoic acid]	252.6 °C (dec.)
CN(CC1(O)CCN(CCc2ccc(C#N)cc2)CC1)c1ccc(C(=O)O)c(Cl)c1 [Example 5, 2-chloro-4-({1-[2-(4-cyanophenyl)ethyl]-4-hydroxypiperidin-4-ylmethyl}methylamino)benzoic acid]	186.2 to 189.6 °C
COC(=O)c1ccc(N(C)CC2(O)CCN(Cc3ccc(C#N)cc3)CC2)cc1 [Example 20, methyl 4-{[1-(4-cyanobenzyl)-4-hydroxypiperidin-4-ylmethyl]methylamino}benzoate]	127.5 to 137.1 °C
COc1cc(N(C)CC2(O)CCN(CCc3ccc(C#N)cc3)CC2)c(Cl)cc1C(=O)O [Example 7, 5-chloro-4-({1-[2-(4-cyanophenyl)ethyl]-4-hydroxypiperidin-4-ylmethyl}methylamino)-2-methoxybenzoic acid]	226.8 to 228.3 °C
CN(CC1(O)CCN(CCc2ccc(C#N)cc2)CC1)c1ccc(C(=O)O)c(Cl)c1.Cl	145.2 to 148 °C

More lines, now with the values ahead:

melting point	Compound
254.2 to 258.9 °C	CN(CC1(O)CCN(CCc2ccc(C#N)cc2)CC1)c1ccc(C(=O)O)cc1Cl.Cl
153.1 to 157.7 °C	CN(CC1(O)CCN(Cc2ccc(C#N)cc2)CC1)c1ccc(C(=O)O)cc1.Cl
110.7 to 112.4 °C	CN(CC1(O)CCN(CCc2ccc(C#N)cc2)CC1)c1ccc(C(=O)O)cc1Cl [Example 6, 3-chloro-4-({1-[2-(4-cyanophenyl)ethyl]-4-hydroxypiperidin-4-ylmethyl}methylamino)benzoic acid]
231.3 to 236.4 °C	CN(CCC1(O)CCN(CCc2ccc(C#N)cc2)CC1)c1ccc(C(=O)O)cc1.Cl
103.6 to 108.7 °C	Cc1cc(C(=O)O)ccc1N(C)CC1(O)CCN(CCc2ccc(C#N)cc2)CC1 [Example 3, 4-({1-[2-(4-cyanophenyl)ethyl]-4-hydroxypiperidin-4-ylmethyl}methylamino)-3-methylbenzoic acid]
127.1 to 132.7 °C	Cc1cc(C(=O)O)ccc1N(C)CC1(O)CCN(CCc2ccc(C#N)cc2)CC1.Cl
150.1 to 151.2 °C	CN(CC1(O)CCN(CCCc2ccc(C#N)cc2)CC1)c1ccc(C(=O)O)cc1.Cl
166.9 to 181.3 °C	CN(CC1(O)CCCN(CCc2ccc(C#N)cc2)C1)c1ccc(C(=O)O)cc1 (stereo not drawn) [Example 15, 4-({1-[2-(4-cyanophenyl)ethyl]-3-hydroxypiperidin-3-ylmethyl}methylamino)benzoic acid]
118.6 to 120.6 °C	COC(=O)c1ccc(OCC2(O)CCN(CCc3ccc(C#N)cc3)CC2)cc1 [Example 13, methyl 4-{1-[2-(4-cyanophenyl)ethyl]-4-hydroxypiperidin-4-ylmethoxy}benzoate]
169.6 to 174.5 °C	COC(=O)c1ccc([S+]([O-])CC2(O)CCN(CCc3ccc(C#N)cc3)CC2)cc1 (stereo not drawn) [Example 44, methyl 4-{1-[2-(4-cyanophenyl)ethyl]-4-hydroxypiperidin-4-ylmethylsulfinyl}benzoate]
279.7 °C (dec.)	Cl.N#Cc1ccc(CCN2CCC(O)(C[S+]([O-])c3ccc(C(=O)O)cc3)CC2)cc1 (stereo not drawn)
106.1 to 130.8 °C	CN(CC1(O)CCN(CCc2ccc(C#N)cc2)C1)c1ccc(C(=O)O)cc1 (stereo not drawn) [Example 14, 4-({1-[2-(4-cyanophenyl)ethyl]-3-hydroxypyrrolidin-3-ylmethyl}methylamino)benzoic acid]
140.5 to 142.2 °C	COC(=O)c1ccc(N(C)CC2(O)CCN(CCc3ccc(C#N)cc3)CC2)cc1 [Example 12, methyl 4-({1-[2-(4-cyanophenyl)ethyl]-4-hydroxypiperidin-4-ylmethyl}methylamino)benzoate]
146.8 to 148.4 °C	CN(CCC1(O)CCN(CCc2ccc(C#N)cc2)CC1)c1ccc(C(=O)O)cc1 [Example 16, 4-[(2-{1-[2-(4-cyanophenyl)ethyl]-4-hydroxypiperidin-4-yl}ethyl)methylamino]benzoic acid]
